Assay results published in US20230126447A1, “OCULAR DRUG DEPOT FOR COMPLEMENT-MEDIATED DISORDERS” (priority 2020, published 2023).

Experiment: Ocular tissue distribution and pharmacokinetics, 7.5 and 15 mg/kg oral, pigmented Dutch Belted rabbits (Example 7)
Format: in vivo
Settings: male DB rabbits
Experimental: For Group 1, two animals/time point were sacrificed via an overdose of sodium pentobarbital at approximately 1, 6, 12, 24, 96, 168, and 240 hours postdose. Blood (approximately 2 mL) was collected from all animals at sacrifice into tubes containing K2EDTA via exsanguination (cardiac puncture).
For Groups 2 through 4, blood (approximately 2 mL) was collected via a jugular vein using a syringe and needle and was transferred into tubes containing K2EDTA at approximately 12 hours after the a.m. dose on Day 15 from the two animals designated for sacrifice at approximately 240 hours after the a.m. dose on Day 15.
For Groups 2 through 4, two animals/group/time point were sacrificed via an overdose of sodium pentobarbital prior to dosing on Day 15 and at approximately 1, 6, 24, 96, 168, and 240 hours after the a.m. dose on Day 15. Blood (approximately 2 mL) was collected from all animals at sacrifice into tubes containing K2EDTA via exsanguination (cardiac puncture).
Blood was maintained on wet ice, in chilled cryoracks, or at approximately 5° C. prior to centrifugation to obtain plasma. Centrifugation began within 1 hour of collection (Deviation). Plasma was placed into 96-well tubes with barcode labels. Plasma was maintained on dry ice prior to storage at approximately −70° C.
At the time of sacrifice, both eyes were enucleated, and the following tissues were collected. Each eye was flash-frozen in liquid nitrogen for 15 to 20 seconds. The enucleated eye was placed on dry ice or stored at approximately −70° C. for at least 2 hours. Within approximately 3 days, the frozen matrices were collected as right and left eyes for each matrix into the specific tube type listed.
At the time of frozen collection, the ocular tissues were rinsed with saline and blotted dry (as appropriate), weighed, and placed on dry ice. All ocular tissues were collected as single samples.

[1] = Dutch Belted, rabbit, Retina (OU), Group 1, Day 1, 7.5 mg/kg single oral dose
[2] = Dutch Belted, rabbit, plasma, Group 1, Day 1, 7.5 mg/kg single oral dose
[3] = ICB (OU), Group 1, Day 1, […] single oral dose
[4] = ICB (OU), Group 2, Day 15, […] BID oral (15 mg/kg/day)
[5] = ICB (OU), Group 3, Day 15, 15 mg/kg/dose BID oral (30 mg/kg/day)
[6] = Retina (OU), Group 1, Day 1, […] single oral dose
[7] = Retina (OU), Group 2, Day 15, […] BID oral (15 mg/kg/day)
[8] = Retina (OU), Group 3, Day 15, 15 mg/kg/dose BID oral (30 mg/kg/day)

What does the source list for `CC(=O)c1nn(CC(=O)N2C[C@H](F)C[C@H]2C(=O)Nc2cccc(Br)n2)c2ccc(-c3cnc(C)nc3)cc12` [Compound 1, (2S,4R)-1-(2-(3-Acetyl-5-(2-methylpyrimidin-5-yl)-1H-indazol-1-yl)acetyl)-N-(6-bromopyridin-2-yl)-4-fluoropyrrolidine-2-carboxamide]?
MRT last [1]: 2.7 h; Tmax [1]: 1 h; Tmax (Dutch Belted, rabbit, Retina (OU), Group 3, Day 15, 15 mg/kg/dose BID oral (30 mg/kg/day)): 1 h; MRT last [2]: 2.67 h; Tmax [2]: 1 h; AUC(0-inf) (Dutch Belted, rabbit, plasma, Group 1, Day 1, 7.5 mg/kg single oral dose, read-out: AUC0-inf): 1590 ng·h/mL; Tmax (Dutch Belted, rabbit, plasma, Group 3, Day 15, 15 mg/kg/dose BID oral (30 mg/kg/day)): 1 h; AUC0-12 [3]: 2560 ng·h/g; AUC(0-24) [3]: 3460 ng·h/g; AUC(0-t) [3]: 3460 ng·h/g; Ctrough [3]: 119 ng/g; DN AUC0-12 [3]: 341 (h*ng/g)/(mg/kg/dose); DN AUC0-24 [3]: 462 (h*ng/g)/(mg/kg/day); DN Cmax [3]: 57.9 (ng/g)/(mg/kg/day); AUC0-12 [4]: 7860 ng·h/g; AUC(0-24) [4]: 11900 ng·h/g; AUC(0-t) [4]: 11900 ng·h/g; Ctrough [4]: 484 ng/g; DN AUC0-12 [4]: 1050 (h*ng/g)/(mg/kg/dose); DN AUC0-24 [4]: 1580 (h*ng/g)/(mg/kg/day); DN Cmax [4]: 126 (ng/g)/(mg/kg/day); AUC0-12 [5]: 13900 ng·h/g; AUC(0-24) [5]: 21300 ng·h/g; AUC(0-t) [5]: 21300 ng·h/g; Ctrough [5]: 780 ng/g; DN AUC0-12 [5]: 925 (h*ng/g)/(mg/kg/dose); DN AUC0-24 [5]: 1420 (h*ng/g)/(mg/kg/day); DN Cmax [5]: 136 (ng/g)/(mg/kg/day); AUC0-12 [6]: 765 ng·h/g; AUC0-240 [6]: 864 ng·h/g; AUC(0-24) [6]: 864 ng·h/g; AUC(0-t) [6]: 765 ng·h/g; Ctrough [6]: 16.5 ng/g; DN AUC0-12 [6]: 102 (h*ng/g)/(mg/kg/dose); DN AUC0-24 [6]: 115 (h*ng/g)/(mg/kg/day); DN Cmax [6]: 25.1 (ng/g)/(mg/kg/day); AUC0-12 [7]: 1710 ng·h/g; AUC0-240 [7]: 6070 ng·h/g; AUC(0-24) [7]: 2450 ng·h/g; AUC(0-t) [7]: 6070 ng·h/g; Ctrough [7]: 80.0 ng/g; DN AUC0-12 [7]: 227 (h*ng/g)/(mg/kg/dose); DN AUC0-24 [7]: 327 (h*ng/g)/(mg/kg/day); DN Cmax [7]: 40.8 (ng/g)/(mg/kg/day); AUC0-12 [8]: 11500 ng·h/g; AUC0-240 [8]: 16100 ng·h/g; AUC(0-24) [8]: 6460 ng·h/g; AUC(0-t) [8]: 16100 ng·h/g; Ctrough [8]: 123 ng/g; DN AUC0-12 [8]: 325 (h*ng/g)/(mg/kg/dose)
